Assay results: US20240115549A1, “TREATMENT OF MENTAL DISORDERS” (GH Research Ireland Limited, priority 2022, published 2024)
Where “and” joins values, the source holds several entries; their conditions need not be identical. Equal values may be shown once. Entries after “also recorded” stand apart in the source; their conditions may differ.

Test system: patients with postpartum depression (PPD)
Test: Clinical trial of inhaled 5-MeO-DMT in patients with postpartum depression
Format: in vivo, human
Conditions: individual PPD patient
Description: The single-arm, open-label clinical trial will involve 15 adult female patients with clinically diagnosed postpartum depression (PPD).
The second dose (12 mg) will only be administered if: • a. A peak experience (total score of 275) has not been achieved following the 6 mg dose, and • b. The 6 mg dose was safe and well-tolerated according to the investigator, • c. Any psychoactive effects (PsE) of the prior dose have subsided, and • d. Pre-dose vital parameters and forced expiratory volume in one second (FEV1) are in normal range, or if outside of the normal range, are not clinically significant according to the investigator. • 3. Similarly, a third dose (18 mg) will only be administered if: • a. A peak experience (total score of 275) has not been achieved following the 12 mg dose, and • b. The 12 mg dose was safe and well-tolerated according to the investigator, and • c. Any PsE of the prior dose have subsided, and • d. Pre-dose vital parameters and forced expiratory volume in one second (FEV1) are in normal range, or if outside of the normal range, are not clinically significant according to the investigator.
The patients will be assessed for a peak psychedelic experience (based on a patient-scored visual analogue scale, the PE scale), sedation, and other endpoints after dosing. Follow-up visits are planned for Day 1, and Day 7 after the dosing day.
The following criteria must be met by all patients considered for clinical trial participation: • 1. Is female and in the age range between 18 and 45 years (inclusive) at screening. • 2. Has a body mass index (BMI) in the range of 18.5 and 35 kg/m^2 (inclusive) at screening. • 3. Meets the trial criteria for PPD as assessed by a trial psychiatrist or registered psychologist: • a. Diagnosis of Major Depressive Disorder without psychotic features, confirmed by the Mini-International Neuropsychiatric Interview (MINI), with peri-partum onset that began no earlier than gestation and no later than the first 4 weeks postpartum. • b. Has a Montgomery-Åsberg Depression Rating Scale (MADRS) total score of equal to or greater than 28 at screening and pre-dose on Day 0. • 6. […] Patients must have a negative pregnancy test at screening and on the pre-test day (Day −1). • 5. Is willing to delay start of other antidepressant or anxiety medication until after the end of the trial at Day 7 and agrees to keep any psychotherapy unchanged during the trial.
A potential patient who meets any of the following key exclusion criteria will be excluded from participation in this trial: • 1. Has, based on history, psychiatric assessment, and evaluation of the MINI, a current or prior diagnosis of bipolar disorder, a manic or hypomanic episode, a psychotic disorder, Major Depressive Disorder (MDD) or other mood disorder with psychotic features, obsessive compulsive disorder, post-traumatic stress disorder (PTSD), autism spectrum disorder, borderline personality disorder, schizophrenia, delusional disorder, paranoid personality disorder, schizoaffective disorder, clinically significant intellectual disability, or any other psychiatric comorbidity that renders the patient unsuitable for the trial according to the investigator's judgment. • 2. Has one or more first or second degree relatives with a current or previously diagnosed bipolar disorder, psychotic disorder or other mood disorder (including MDD) with psychotic features. • 3. Is in the judgement of a trial psychiatrist or registered psychologist, at significant risk for suicide based on history, psychiatric assessment, and evaluation of suicidal ideation and suicidal behaviour based on the Columbia-Suicide Severity Rating Scale (C-SSRS). • 4. Has taken anti-depressive medication within 14 days or 5 half-lives (whichever is longer) prior to dosing (exception: within the last 5 weeks in the case of fluoxetine). • 5.

## COc1ccc2[nH]cc(CCN(C)C)c2c1 [5-MeO-DMT]
  Reported adverse events: mild, short-lasting and resolved spontaneously
  Standard criteria for MADRS response (>=50% improvement) and remission (total <=10): fulfilled
6 mg then 12 mg
  Tolerability of inhalation procedure / regimen: well tolerated with no inhalation-related adverse events; also recorded: well tolerated
2 h
  MADRS apparent sadness improvement: 5 and 4
  MADRS apparent sadness score: 0
  MADRS concentration difficulties improvement: 0 and 4
  MADRS concentration difficulties score: 0
  MADRS inability to feel improvement: 3 and 4
  MADRS inability to feel score: 0
  MADRS inner tension improvement: 5 and 4
  MADRS inner tension score: 0
  MADRS lassitude improvement: 3 and 4
  MADRS lassitude score: 0
  MADRS pessimistic thoughts improvement: 4
  MADRS pessimistic thoughts score: 0
  MADRS reduced appetite improvement: 0 and 6
  MADRS reduced appetite score: 0
  MADRS reduced sleep improvement: 0
  MADRS reported sadness improvement: 4 and 5
  MADRS reported sadness score: 0
  MADRS suicidal thoughts improvement: 0 and 1
  MADRS suicidal thoughts score: 0
2 h (baseline carried forward)
  MADRS reduced sleep score: 5
Day 1
  BPRS anxiety improvement: 6 and 5
  BPRS anxiety score: 1
  BPRS blunted affect improvement: 0 and 4
  BPRS blunted affect score: 1
  BPRS conceptual disorganization improvement: 0 and 3
  BPRS conceptual disorganization score: 1
  BPRS depressive mood improvement: 5 and 4
  BPRS depressive mood score: 1
  BPRS disorientation improvement: 0
  BPRS disorientation score: 1
  BPRS emotional withdrawal improvement: 4 and 5
  BPRS emotional withdrawal score: 1
  BPRS excitement improvement: 1 and 0
  BPRS excitement score: 1
  BPRS grandiosity improvement: 0
  BPRS grandiosity score: 1
  BPRS guilt feelings improvement: 5
  BPRS guilt feelings score: 1
  BPRS hallucinatory behaviour improvement: 0
  BPRS hallucinatory behaviour score: 1
  BPRS hostility improvement: 0 and 3
  BPRS hostility score: 1
  BPRS mannerisms and posturing improvement: 0
  BPRS mannerisms and posturing score: 1
  BPRS motor retardation improvement: 0 and 2
  BPRS motor retardation score: 1
  BPRS somatic concern improvement: 5 and 0
  BPRS somatic concern score: 1
  BPRS suspiciousness improvement: 0
  BPRS suspiciousness score: 1
  BPRS tension improvement: 5 and 3
  BPRS tension score: 1
  BPRS uncooperativeness improvement: 0
  BPRS uncooperativeness score: 1
  BPRS unusual thought content improvement: 0
  BPRS unusual thought content score: 1
  MADRS apparent sadness improvement: 5 and 4
  MADRS apparent sadness score: 0
  MADRS concentration difficulties improvement: 0 and 4
  MADRS concentration difficulties score: 0
  MADRS inability to feel improvement: 3 and 4
  MADRS inability to feel score: 0
  MADRS inner tension improvement: 5 and 4
  MADRS inner tension score: 0
  MADRS lassitude improvement: 3 and 4
  MADRS lassitude score: 0
  MADRS pessimistic thoughts improvement: 4
  MADRS pessimistic thoughts score: 0
  MADRS reduced appetite improvement: 0 and 6
  MADRS reduced appetite score: 0
  MADRS reduced sleep improvement: 5
  MADRS reduced sleep score: 0
  MADRS reported sadness improvement: 4 and 5
  MADRS reported sadness score: 0
  MADRS suicidal thoughts improvement: 0 and 1
  MADRS suicidal thoughts score: 0
Day 7
  BIMF TOTAL score: 105 and 104
  BIMF item 1 (I am a good mother) score: 6 and 5
  BIMF item 2 (I feel rested) score: 2 and 4
  BIMF item 3 (comfortable with the way I've chosen to feed my baby) score: 6
  BIMF item 4 (My baby and I understand each other) score: 5 and 6
  BIMF item 5 (able to relax and enjoy time with my baby) score: 6
  BIMF item 6 (people I can trust to care for my baby when I need a break) score: 6 and 5
  BIMF item 8 (getting enough adult interaction) score: 6 and 4
  BIMF item 9 (getting enough encouragement from other people) score: 6 and 5
  BIMF item 10 (I trust my own feelings (instincts)) score: 6
  BIMF item 11 (a little time each week to do something for myself) score: 6 and 4
  BIMF item 12 (taking good care of my baby's physical needs) score: 6
  BIMF item 13 (taking good care of my physical needs) score: 5
  BIMF item 14 (good decisions about my baby's health and well being) score: 6
  BIMF item 15 (My baby and I are getting into a routine) score: 6 and 5
  BIMF item 16 (I worry about how other people judge me) score: 5
  BIMF item 17 (able to take care of my baby and my other responsibilities) score: 5
  BIMF item 18 (Anxiety or worry often interferes with my mothering ability) score: 5
  BIMF item 19 (getting better at taking care of my baby) score: 1 and 6
  BIMF item 20 (satisfied with the job I am doing as a new mother) score: 5
  BIMF total score improvement, percent: 14% and over 40%
  BPRS anxiety improvement: 6 and 5
  BPRS anxiety score: 1
  BPRS blunted affect improvement: 0 and 4
  BPRS blunted affect score: 1
  BPRS conceptual disorganization improvement: 0 and 3
  BPRS conceptual disorganization score: 1
  BPRS depressive mood improvement: 5 and 4
  BPRS depressive mood score: 1
  BPRS disorientation improvement: 0
  BPRS disorientation score: 1
  BPRS emotional withdrawal improvement: 4 and 5
  BPRS emotional withdrawal score: 1
  BPRS excitement improvement: 1 and 0
  BPRS excitement score: 1
  BPRS grandiosity improvement: 0
  BPRS grandiosity score: 1
  BPRS guilt feelings improvement: 5
  BPRS guilt feelings score: 1
  BPRS hallucinatory behaviour improvement: 0
  BPRS hallucinatory behaviour score: 1
  BPRS hostility improvement: 0 and 3
  BPRS hostility score: 1
  BPRS mannerisms and posturing improvement: 0
  BPRS mannerisms and posturing score: 1
  BPRS motor retardation improvement: 0 and 2
  BPRS motor retardation score: 1
  BPRS somatic concern improvement: 5 and 0
  BPRS somatic concern score: 1
  BPRS suspiciousness improvement: 0
  BPRS suspiciousness score: 1
  BPRS tension improvement: 5 and 3
  BPRS tension score: 1
  BPRS uncooperativeness improvement: 0
  BPRS uncooperativeness score: 1
  BPRS unusual thought content improvement: 0
  BPRS unusual thought content score: 1
  MADRS apparent sadness improvement: 5 and 4
  MADRS apparent sadness score: 0
  MADRS concentration difficulties improvement: 0 and 4
  MADRS concentration difficulties score: 0
  MADRS inability to feel improvement: 3 and 4
  MADRS inability to feel score: 0
  MADRS inner tension improvement: 4
  MADRS inner tension score: 1 and 0
  MADRS lassitude improvement: 3 and 4
  MADRS lassitude score: 0
  MADRS pessimistic thoughts improvement: 4
  MADRS pessimistic thoughts score: 0
  MADRS reduced appetite improvement: 0 and 6
  MADRS reduced appetite score: 0
  MADRS reduced sleep improvement: 5
  MADRS reduced sleep score: 0
  MADRS reported sadness improvement: 4 and 5
  MADRS reported sadness score: 0
  MADRS suicidal thoughts improvement: 0 and 1
  MADRS suicidal thoughts score: 0
  Total MADRS improvement: 41
  Total MADRS score: 0
Day 7 vs Day 0
  BIMF TOTAL Δ: 13 and 45
  BIMF domain Adjustment Δ: 1 and 9
  BIMF domain Infant Care Δ: 0
  BIMF domain Management Δ: 5 and 13
  BIMF domain Mother-Child Interaction Δ: 2 and 7
  BIMF domain Psychological Well-being Δ: 9 and 27
  BIMF domain Self-Care Δ: 4 and 10
  BIMF domain Social Support % Improvement: approx. 27% and 27%
  BIMF domain Social Support Δ: 1 and 3
  BIMF item 1 (I am a good mother) Δ: 0 and 1
  BIMF item 2 (I feel rested) Δ: 2 and 4
  BIMF item 3 (comfortable with the way I've chosen to feed my baby) Δ: 0 and 1
  BIMF item 4 (My baby and I understand each other) Δ: 0 and 1
  BIMF item 5 (able to relax and enjoy time with my baby) Δ: 1 and 5
  BIMF item 6 (people I can trust to care for my baby when I need a break) Δ: 0
  BIMF item 8 (getting enough adult interaction) Δ: 0 and 1
  BIMF item 9 (getting enough encouragement from other people) Δ: 1 and 2
  BIMF item 10 (I trust my own feelings (instincts)) Δ: 1 and 2
  BIMF item 11 (a little time each week to do something for myself) Δ: 1 and 2
  BIMF item 12 (taking good care of my baby's physical needs) Δ: 0
  BIMF item 13 (taking good care of my physical needs) Δ: 1 and 4
  BIMF item 14 (good decisions about my baby's health and well being) Δ: 0
  BIMF item 15 (My baby and I are getting into a routine) Δ: 1
  BIMF item 16 (I worry about how other people judge me) Δ: 2 and 4
  BIMF item 17 (able to take care of my baby and my other responsibilities) Δ: 0 and 3
  BIMF item 18 (Anxiety or worry often interferes with my mothering ability) Δ: 3 and 5
  BIMF item 19 (getting better at taking care of my baby) Δ: 1 and 6
  BIMF item 20 (satisfied with the job I am doing as a new mother) Δ: −1 and 4
discharge
  BPRS anxiety improvement: 6 and 5
  BPRS anxiety score: 1
  BPRS blunted affect improvement: 0 and 4
  BPRS blunted affect score: 1
  BPRS conceptual disorganization improvement: 0 and 3
  BPRS conceptual disorganization score: 1
  BPRS depressive mood improvement: 5 and 4
  BPRS depressive mood score: 1
  BPRS disorientation improvement: 0
  BPRS disorientation score: 1
  BPRS emotional withdrawal improvement: 4 and 5
  BPRS emotional withdrawal score: 1
  BPRS excitement improvement: 1 and 0
  BPRS excitement score: 1
  BPRS grandiosity improvement: 0
  BPRS grandiosity score: 1
  BPRS guilt feelings improvement: 5
  BPRS guilt feelings score: 1
  BPRS hallucinatory behaviour improvement: 0
  BPRS hallucinatory behaviour score: 1
  BPRS hostility improvement: 0 and 3
  BPRS hostility score: 1
  BPRS mannerisms and posturing improvement: 0
  BPRS mannerisms and posturing score: 1
  BPRS motor retardation improvement: 0 and 2
  BPRS motor retardation score: 1
  BPRS somatic concern improvement: 5 and 0
  BPRS somatic concern score: 1
  BPRS suspiciousness improvement: 0
  BPRS suspiciousness score: 1
  BPRS tension improvement: 3
  BPRS tension score: 1
  BPRS uncooperativeness improvement: 0
  BPRS uncooperativeness score: 1
  BPRS unusual thought content improvement: 0
  BPRS unusual thought content score: 1
